From ChEMBL document CHEMBL5356946, “Recent progress of small-molecule-based theranostic agents in Alzheimer's disease” (RSC Med Chem, 2023)

Biological target: Amyloid-beta precursor protein (Homo sapiens, UniProt P05067)
Assay: Binding affinity to Amyloid-beta (unknown origin) (1 to 42 residues) assessed as dissociation constant incubated for 30 mins by fluorescence based analysis

Chain of Amyloid-beta precursor protein (P05067 whole entry, the tested form may be a part): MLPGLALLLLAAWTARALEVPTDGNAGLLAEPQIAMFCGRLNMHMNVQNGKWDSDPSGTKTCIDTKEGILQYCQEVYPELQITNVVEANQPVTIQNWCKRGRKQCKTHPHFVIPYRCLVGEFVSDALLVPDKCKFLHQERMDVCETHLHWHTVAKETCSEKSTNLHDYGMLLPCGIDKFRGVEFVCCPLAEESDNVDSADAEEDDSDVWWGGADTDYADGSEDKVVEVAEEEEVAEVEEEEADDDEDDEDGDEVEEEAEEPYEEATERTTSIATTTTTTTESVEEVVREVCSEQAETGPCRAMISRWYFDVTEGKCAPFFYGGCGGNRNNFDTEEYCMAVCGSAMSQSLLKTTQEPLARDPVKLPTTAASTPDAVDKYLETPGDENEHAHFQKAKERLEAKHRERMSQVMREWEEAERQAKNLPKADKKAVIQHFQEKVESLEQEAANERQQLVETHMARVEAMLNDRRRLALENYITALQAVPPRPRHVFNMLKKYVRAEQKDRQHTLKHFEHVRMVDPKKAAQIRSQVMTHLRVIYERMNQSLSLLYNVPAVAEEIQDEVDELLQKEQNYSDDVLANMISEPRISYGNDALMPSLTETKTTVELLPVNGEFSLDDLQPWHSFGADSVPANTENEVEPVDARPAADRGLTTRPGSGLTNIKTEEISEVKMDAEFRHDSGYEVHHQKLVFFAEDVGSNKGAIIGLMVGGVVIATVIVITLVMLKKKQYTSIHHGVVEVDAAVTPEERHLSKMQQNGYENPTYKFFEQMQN

Kd: 7.5 nM
Structure (SMILES): CCOC(=O)CN1C(=O)/C(=C/c2ccc3c(c2)Sc2ccccc2N3C)SC1=S
